Patent US20050101593A1, “Phosphoric acid salt of an integrin receptor antagonist” (priority 2000, published 2005)
Structures can show the parent of a compound that is named as a salt.

How the values were obtained:
[1] = solubility in water and buffered solutions; assay type: physicochemical; conditions: water and buffered solutions between pH 2 and 8
[2] = chemical stability to heat and light; assay type: physicochemical; conditions: compared with the amorphous parent zwitterionic compound of formula (IV)
From the text: (§1) The enhanced stability and non-hygroscopic nature of the crystalline salt constitute advantageous properties in the preparation of solid pharmaceutical dosage forms containing the pharmacologically active ingredient.

hygroscopicity = assay type: physicochemical; conditions: compared with the amorphous zwitterion of formula (IV)
From the text: as §1

Row | melting point | solubility [1] | hygroscopicity (hygroscopicity) | Structure (SMILES) | chemical stability to heat and light [2]
1 | 127 °C |  |  | COc1ncc(C(CC(=O)O)CC(=O)CCCCc2ccc3c(n2)NCCCC3)cn1.O=P(O)(O)O (single isomer, unassigned) [1-17a, 3(S or R)-(2-Methoxy-pyrimidin-5-yl)-5-oxo-9-(6,7,8,9-tetrahydro-5H-pyrido[2,3-b]azepin-2-yl)-nonanoic Acid Phosphoric Acid Salt] | 
2 |  | > 12 mg/mL | significantly less hygroscopic | COc1ncc(C(CC(=O)O)CC(=O)CCCCc2ccc3c(n2)NCCCC3)cn1 (stereo not shown) [salt of formula I, phosphoric acid salt of 3-(2-methoxy-pyrimidin-5-yl)-5-oxo-9-(6,7,8,9-tetrahydro-5H-pyrido[2,3-b]azepin-2-yl)-nonanoic acid] | greater chemical stability to heat and light
